# Test system: Hs578T complex spheroid growth, percent test/control
# Assay: Anticancer human tumor Hs578T cell line growth inhibition [AhR];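 further: luminescent viability signal as a proxy for spheroid growth; spheroids exposed to agents for one week after three days of growth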
# Details: for IC50: curve of first compound; for viability, T/C: stronger effect = lower value
# How it was run: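 Complex tumor spheroids co-cultured with HUVEC and human MSC stroma; AhR antagonists tested in combination with standard-of-care and investigational agents. Top concentration at or near clinical Cmax (else 10 microM), half-log dilutions; growth expressed as percent test/control.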
# [1] = second compound 0.1 µM, first compound 0.0316 µM
# [2] = second compound 0.1 µM, first compound 0.1 µM
# [3] = second compound 0.1 µM, first compound 0.316 µM
# [4] = second compound 0.1 µM, first compound 1 µM
# [5] = second compound 0.1 µM, first compound 3.16 µM
# [6] = second compound 0.1 µM, first compound 10 µM
# [7] = second compound 0.316 µM, first compound 0.0316 µM
# [8] = second compound 0.316 µM, first compound 0.1 µM
# [9] = second compound 0.316 µM, first compound 0.316 µM
# [10] = second compound 0.316 µM, first compound 1 µM
# [11] = second compound 0.316 µM, first compound 3.16 µM
# [12] = second compound 0.316 µM, first compound 10 µM
# [13] = second compound 1 µM, first compound 0.0316 µM
# [14] = second compound 1 µM, first compound 0.1 µM
# [15] = second compound 1 µM, first compound 0.316 µM
# [16] = second compound 1 µM, first compound 1 µM
# [17] = second compound 1 µM, first compound 3.16 µM
# [18] = second compound 1 µM, first compound 10 µM
# [19] = second compound 3.16 µM, first compound 0.0316 µM
# [20] = second compound 3.16 µM, first compound 0.1 µM
# [21] = second compound 3.16 µM, first compound 0.316 µM
# [22] = second compound 3.16 µM, first compound 1 µM
# [23] = second compound 3.16 µM, first compound 3.16 µM
# [24] = second compound 3.16 µM, first compound 10 µM
# [25] = second compound 10 µM, first compound 0.0316 µM
# [26] = second compound 10 µM, first compound 0.1 µM
# [27] = second compound 10 µM, first compound 0.316 µM
# [28] = second compound 10 µM, first compound 1 µM
# [29] = second compound 10 µM, first compound 3.16 µM
# [30] = second compound 10 µM, first compound 10 µM
smiles,measurement,setting,value
CC1(C)CCC(CN2CCN(c3ccc(C(=O)NS(=O)(=O)c4ccc(NCC5CCOCC5)c([N+](=O)[O-])c4)c(Oc4cnc5[nH]ccc5c4)c3)CC2)=C(c2ccc(Cl)cc2)C1 + Cc1cncc(-c2nc(NCCc3c[nH]c4ccccc34)c3ncn(C(C)C)c3n2)c1,IC50,second compound 0.1 µM,> 10000 nM
same,IC50,second compound 0.316 µM,> 10000 nM
same,IC50,second compound 1 µM,> 10000 nM
same,IC50,second compound 3.16 µM,> 10000 nM
same,IC50,second compound 10 µM,< 31.6 nM
same,"viability, T/C",[1],117%
same,"viability, T/C",[2],118%
same,"viability, T/C",[3],115%
same,"viability, T/C",[4],94.8%
same,"viability, T/C",[5],95.9%
same,"viability, T/C",[6],82.6%
same,"viability, T/C",[7],117%
same,"viability, T/C",[8],118%
same,"viability, T/C",[9],112%
same,"viability, T/C",[10],109%
same,"viability, T/C",[11],105%
same,"viability, T/C",[12],97.4%
same,"viability, T/C",[13],113%
same,"viability, T/C",[14],111%
same,"viability, T/C",[15],109%
same,"viability, T/C",[16],108%
same,"viability, T/C",[17],111%
same,"viability, T/C",[18],92.8%
same,"viability, T/C",[19],49.6%
same,"viability, T/C",[20],65.6%
same,"viability, T/C",[21],65.5%
same,"viability, T/C",[22],56.4%
same,"viability, T/C",[23],69.2%
same,"viability, T/C",[24],75.2%
same,"viability, T/C",[25],3.98%
same,"viability, T/C",[26],3.8%
same,"viability, T/C",[27],4.95%
same,"viability, T/C",[28],5.32%
same,"viability, T/C",[29],4.95%
same,"viability, T/C",[30],8.06%
CCN(c1cc(-c2ccc(CN3CCOCC3)cc2)cc(C(=O)NCc2c(C)cc(C)[nH]c2=O)c1C)C1CCOCC1 + Cc1cncc(-c2nc(NCCc3c[nH]c4ccccc34)c3ncn(C(C)C)c3n2)c1,IC50,second compound 0.1 µM,> 3000 nM
same,IC50,second compound 0.316 µM,> 3000 nM
same,IC50,second compound 1 µM,> 3000 nM
same,IC50,second compound 3.16 µM,< 9.49 nM
same,IC50,second compound 10 µM,< 9.49 nM
same,"viability, T/C","second compound 0.1 µM, first compound 0.00949 µM",111%
same,"viability, T/C","second compound 0.1 µM, first compound 0.03 µM",95.9%
same,"viability, T/C","second compound 0.1 µM, first compound 0.0949 µM",101%
same,"viability, T/C","second compound 0.1 µM, first compound 0.3 µM",107%
same,"viability, T/C","second compound 0.1 µM, first compound 0.949 µM",94.4%
same,"viability, T/C","second compound 0.1 µM, first compound 3 µM",106%
same,"viability, T/C","second compound 0.316 µM, first compound 0.00949 µM",111%
same,"viability, T/C","second compound 0.316 µM, first compound 0.03 µM",99.9%
same,"viability, T/C","second compound 0.316 µM, first compound 0.0949 µM",106%
same,"viability, T/C","second compound 0.316 µM, first compound 0.3 µM",96.6%
same,"viability, T/C","second compound 0.316 µM, first compound 0.949 µM",99.5%
same,"viability, T/C","second compound 0.316 µM, first compound 3 µM",90.7%
same,"viability, T/C","second compound 1 µM, first compound 0.00949 µM",103%
same,"viability, T/C","second compound 1 µM, first compound 0.03 µM",102%
same,"viability, T/C","second compound 1 µM, first compound 0.0949 µM",101%
same,"viability, T/C","second compound 1 µM, first compound 0.3 µM",93.5%
same,"viability, T/C","second compound 1 µM, first compound 0.949 µM",105%
same,"viability, T/C","second compound 1 µM, first compound 3 µM",93.3%
same,"viability, T/C","second compound 3.16 µM, first compound 0.00949 µM",49.8%
same,"viability, T/C","second compound 3.16 µM, first compound 0.03 µM",46.4%
same,"viability, T/C","second compound 3.16 µM, first compound 0.0949 µM",51.5%
same,"viability, T/C","second compound 3.16 µM, first compound 0.3 µM",48%
same,"viability, T/C","second compound 3.16 µM, first compound 0.949 µM",46%
same,"viability, T/C","second compound 3.16 µM, first compound 3 µM",51.7%
same,"viability, T/C","second compound 10 µM, first compound 0.00949 µM",6.41%
same,"viability, T/C","second compound 10 µM, first compound 0.03 µM",5.56%
same,"viability, T/C","second compound 10 µM, first compound 0.0949 µM",7.45%
same,"viability, T/C","second compound 10 µM, first compound 0.3 µM",5.08%
same,"viability, T/C","second compound 10 µM, first compound 0.949 µM",5.95%
same,"viability, T/C","second compound 10 µM, first compound 3 µM",3.67%
COc1cc(Nc2ncc3c(n2)-c2ccc(Cl)cc2C(c2c(F)cccc2OC)=NC3)ccc1C(=O)O + Cc1cncc(-c2nc(NCCc3c[nH]c4ccccc34)c3ncn(C(C)C)c3n2)c1,IC50,second compound 0.1 µM,> 10000 nM
same,IC50,second compound 0.316 µM,> 10000 nM
same,IC50,second compound 1 µM,> 10000 nM
same,IC50,second compound 3.16 µM,> 10000 nM
same,IC50,second compound 10 µM,< 31.6 nM
same,"viability, T/C",[1],91.4%
same,"viability, T/C",[2],94.7%
same,"viability, T/C",[3],99.6%
same,"viability, T/C",[4],101%
same,"viability, T/C",[5],85.6%
same,"viability, T/C",[6],65.1%
same,"viability, T/C",[7],93.5%
same,"viability, T/C",[8],93.2%
same,"viability, T/C",[9],107%
same,"viability, T/C",[10],90.5%
same,"viability, T/C",[11],88.2%
same,"viability, T/C",[12],66.9%
same,"viability, T/C",[13],98.5%
same,"viability, T/C",[14],81.7%
same,"viability, T/C",[15],104%
same,"viability, T/C",[16],99.2%
same,"viability, T/C",[17],86.7%
same,"viability, T/C",[18],62.5%
same,"viability, T/C",[19],55.6%
same,"viability, T/C",[20],62.4%
same,"viability, T/C",[21],70.1%
same,"viability, T/C",[22],59.4%
same,"viability, T/C",[23],61.1%
same,"viability, T/C",[24],53.3%
same,"viability, T/C",[25],6.12%
same,"viability, T/C",[26],5.86%
same,"viability, T/C",[27],6.53%
same,"viability, T/C",[28],6.24%
same,"viability, T/C",[29],8.49%
same,"viability, T/C",[30],12.8%
Cn1ncnc1C1c2n[nH]c(=O)c3cc(F)cc(c23)NC1c1ccc(F)cc1 (stereo not given) + Cc1cncc(-c2nc(NCCc3c[nH]c4ccccc34)c3ncn(C(C)C)c3n2)c1,IC50,second compound 0.1 µM,> 100 nM
same,IC50,second compound 0.316 µM,> 100 nM
same,IC50,second compound 1 µM,> 100 nM
same,IC50,second compound 3.16 µM,> 100 nM
same,IC50,second compound 10 µM,< 0.316 nM
same,"viability, T/C","second compound 0.1 µM, first compound 0.000316 µM",103%
same,"viability, T/C","second compound 0.1 µM, first compound 0.001 µM",104%
same,"viability, T/C","second compound 0.1 µM, first compound 0.00316 µM",112%
same,"viability, T/C","second compound 0.1 µM, first compound 0.01 µM",99%
same,"viability, T/C",[1],111%
same,"viability, T/C",[2],108%
same,"viability, T/C","second compound 0.316 µM, first compound 0.000316 µM",107%
same,"viability, T/C","second compound 0.316 µM, first compound 0.001 µM",115%
same,"viability, T/C","second compound 0.316 µM, first compound 0.00316 µM",116%
same,"viability, T/C","second compound 0.316 µM, first compound 0.01 µM",106%
same,"viability, T/C",[7],97.4%
same,"viability, T/C",[8],108%
same,"viability, T/C","second compound 1 µM, first compound 0.000316 µM",101%
same,"viability, T/C","second compound 1 µM, first compound 0.001 µM",105%
same,"viability, T/C","second compound 1 µM, first compound 0.00316 µM",98%
same,"viability, T/C","second compound 1 µM, first compound 0.01 µM",98.5%
same,"viability, T/C",[13],97%
same,"viability, T/C",[14],97.6%
same,"viability, T/C","second compound 3.16 µM, first compound 0.000316 µM",67.8%
same,"viability, T/C","second compound 3.16 µM, first compound 0.001 µM",73.3%
same,"viability, T/C","second compound 3.16 µM, first compound 0.00316 µM",72.4%
same,"viability, T/C","second compound 3.16 µM, first compound 0.01 µM",69%
same,"viability, T/C",[19],70.5%
same,"viability, T/C",[20],64.1%
same,"viability, T/C","second compound 10 µM, first compound 0.000316 µM",8.48%
same,"viability, T/C","second compound 10 µM, first compound 0.001 µM",9.41%
same,"viability, T/C","second compound 10 µM, first compound 0.00316 µM",9.77%
same,"viability, T/C","second compound 10 µM, first compound 0.01 µM",7.44%
same,"viability, T/C",[25],9.58%
same,"viability, T/C",[26],9.69%
NS(=O)(=O)OCC1CC(n2ccc3c(NC4CCc5ccccc54)ncnc32)CC1O (stereo not given) + Cc1cncc(-c2nc(NCCc3c[nH]c4ccccc34)c3ncn(C(C)C)c3n2)c1,IC50,second compound 0.1 µM,2900 nM
same,IC50,second compound 0.316 µM,2840 nM
same,IC50,second compound 1 µM,2140 nM
same,IC50,second compound 3.16 µM,774 nM
same,IC50,second compound 10 µM,< 31.6 nM
same,"viability, T/C",[1],114%
same,"viability, T/C",[2],94.9%
same,"viability, T/C",[3],83.3%
same,"viability, T/C",[4],60.2%
same,"viability, T/C",[5],51%
same,"viability, T/C",[6],35.1%
same,"viability, T/C",[7],128%
same,"viability, T/C",[8],100%
same,"viability, T/C",[9],84.2%
same,"viability, T/C",[10],60.6%
same,"viability, T/C",[11],48.2%
same,"viability, T/C",[12],39.6%
same,"viability, T/C",[13],115%
same,"viability, T/C",[14],98.9%
same,"viability, T/C",[15],99.4%
same,"viability, T/C",[16],59.4%
same,"viability, T/C",[17],48.3%
same,"viability, T/C",[18],36.6%
same,"viability, T/C",[19],69.2%
same,"viability, T/C",[20],66%
same,"viability, T/C",[21],66.1%
same,"viability, T/C",[22],45.4%
same,"viability, T/C",[23],35.4%
same,"viability, T/C",[24],38.3%
same,"viability, T/C",[25],6.36%
same,"viability, T/C",[26],6.52%
same,"viability, T/C",[27],7.75%
same,"viability, T/C",[28],5.11%
same,"viability, T/C",[29],5.06%
same,"viability, T/C",[30],3.64%

# Reference: PubChem BioAssay AID1919010 (Molecular Pharmacology Branch, DTP, NCI, 2023)
